Data published in BindingDB's records for doi:10.1021/jm00072a019 (J. Uriach & Cía., 1993).

Key:
[1] = In vitro inhibition of PAF-induced platelet aggregation in male rabbits
[2] = Inhibition of PAF-induced platelet aggregation

## Cc1ncccc1C(C#N)N1CCN(C(=O)CC(NC(=O)c2cnccn2)c2ccccc2)CC1 (stereo not given) [Pyrazine-2-carboxylic acid (3-{4-[cyano-(2-methyl-pyridin-3-yl)-methyl]-piperazin-1-yl}-3-oxo-1-phenyl-propyl)-amide]
[1]
  IC50: 0.82 µM

## Cc1ncccc1C(C#N)N1CCN(C(=O)CN(C(c2ccccc2)c2ccccc2)S(C)(=O)=O)CC1 (stereo not given) [N-Benzhydryl-N-(2-{4-[cyano-(2-methyl-pyridin-3-yl)-methyl]-piperazin-1-yl}-2-oxo-ethyl)-methanesulfonamide]
[1]
  IC50: 0.082 µM

## Cc1ncccc1C(CO)N1CCN(C(=O)CC(c2ccccc2)c2ccccc2)CC1 (stereo not given) [1-{4-[2-Hydroxy-1-(2-methyl-pyridin-3-yl)-ethyl]-piperazin-1-yl}-3,3-diphenyl-propan-1-one]
[1]
  IC50: 4 µM

## Cc1ncccc1C(C#N)N1CCN(C(=O)CC(C)(O)c2ccccc2)CC1 (stereo not given) [[4-(3-Hydroxy-3-phenyl-butyryl)-piperazin-1-yl]-(2-methyl-pyridin-3-yl)-acetonitrile]
[1]
  IC50: 0.036 µM

## CO/N=C(/C)C(c1cccnc1C)N1CCN(C(=O)CC(c2ccccc2)c2ccccc2)CC1 (stereo not given) [1-{4-[2-Methoxyimino-1-(2-methyl-pyridin-3-yl)-propyl]-piperazin-1-yl}-3,3-diphenyl-propan-1-one]
[1]
  IC50: 7.8 µM

## Cc1ncccc1C(C#N)N1CCN(C(=O)CC(O)(c2ccccc2)C(F)(F)F)CC1 (stereo not given) [(2-Methyl-pyridin-3-yl)-[4-(4,4,4-trifluoro-3-hydroxy-3-phenyl-butyryl)-piperazin-1-yl]-acetonitrile]
[1]
  IC50: 0.014 µM

## Cc1ncccc1C(C#N)N1CCN(C(=O)CC(NC(=O)c2ncccc2O)c2ccccc2)CC1 (stereo not given) [3-Hydroxy-pyridine-2-carboxylic acid (3-{4-[cyano-(2-methyl-pyridin-3-yl)-methyl]-piperazin-1-yl}-3-oxo-1-phenyl-propyl)-amide]
[1]
  IC50: 0.13 µM

## Cc1ncccc1C(C#N)N1CCN(C(=O)CC(C)c2ccccc2)CC1 (stereo not given) [(2-Methyl-pyridin-3-yl)-[4-(3-phenyl-butyryl)-piperazin-1-yl]-acetonitrile]
[1]
  IC50: 0.032 µM

## CCOC(=O)C(CC(=O)N1CCN(C(C#N)c2cccnc2C)CC1)(c1ccccc1)c1ccccc1 (stereo not given) [4-{4-[Cyano-(2-methyl-pyridin-3-yl)-methyl]-piperazin-1-yl}-4-oxo-2,2-diphenyl-butyric acid ethyl ester]
[1]
  IC50: 0.046 µM

## Cc1ncccc1C(C#N)N1CCN(C(=O)CC(c2ccccc2)N2CCCC2)CC1 (stereo not given) [(2-Methyl-pyridin-3-yl)-[4-(3-phenyl-3-pyrrolidin-1-yl-propionyl)-piperazin-1-yl]-acetonitrile]
[1]
  IC50: 0.018 µM

## Cc1ncccc1C(C#N)N1CCN(C(=O)CC(c2ccccc2)N2CCCS2(=O)=O)CC1 (stereo not given) [{4-[3-(1,1-Dioxo-1lambda*6*-isothiazolidin-2-yl)-3-phenyl-propionyl]-piperazin-1-yl}-(2-methyl-pyridin-3-yl)-acetonitrile]
[1]
  IC50: 0.17 µM

## Cc1ncccc1C(C#N)N1CCN(C(=O)C[S+]([O-])C(c2ccccc2)c2ccccc2)CC1 (stereo not given) [{4-[2-(Diphenyl-methanesulfinyl)-acetyl]-piperazin-1-yl}-(2-methyl-pyridin-3-yl)-acetonitrile]
[1]
  IC50: 0.044 µM

## Cc1ncccc1C(C#N)N1CCN(C(=O)CC(O)(c2ccc(F)cc2)c2ccc(F)cc2)CC1 (stereo not given) [{4-[3,3-Bis-(4-fluoro-phenyl)-3-hydroxy-propionyl]-piperazin-1-yl}-(2-methyl-pyridin-3-yl)-acetonitrile]
[1]
  IC50: 0.075 µM

## Cc1ncccc1C(C#N)N1CCN(C(=O)CC(NS(=O)(=O)c2ccccc2)c2ccccc2)CC1 (stereo not given) [N-(3-{4-[Cyano-(2-methyl-pyridin-3-yl)-methyl]-piperazin-1-yl}-3-oxo-1-phenyl-propyl)-benzenesulfonamide]
[1]
  IC50: 0.018 µM

## Cc1ncccc1C(C#N)N1CCN(C(=O)CON=C(c2ccccc2)c2ccccc2)CC1 (stereo not given) [[4-(2-Benzhydrylideneaminooxy-acetyl)-piperazin-1-yl]-(2-methyl-pyridin-3-yl)-acetonitrile]
[1]
  IC50: 0.087 µM

## Cc1ncccc1C(C#N)N1CCN(C(=O)CC(c2ccccc2)n2cccc2)CC1 (stereo not given) [(2-Methyl-pyridin-3-yl)-[4-(3-phenyl-3-pyrrol-1-yl-propionyl)-piperazin-1-yl]-acetonitrile]
[1]
  IC50: 0.35 µM

## Cc1ncccc1C(C#N)N1CCN(C(=O)CS(=O)(=O)C(c2ccccc2)c2ccccc2)CC1 (stereo not given) [{4-[2-(Diphenyl-methanesulfonyl)-acetyl]-piperazin-1-yl}-(2-methyl-pyridin-3-yl)-acetonitrile]
[1]
  IC50: 0.026 µM

## Cc1ncccc1C(C#N)N1CCN(C(=O)CC(c2ccccc2)C(F)(F)F)CC1 (stereo not given) [(2-Methyl-pyridin-3-yl)-[4-(4,4,4-trifluoro-3-phenyl-butyryl)-piperazin-1-yl]-acetonitrile]
[1]
  IC50: 0.012 µM

## Cc1ncccc1C(C#N)N1CCN(C(=O)CC(NS(C)(=O)=O)c2ccccc2)CC1 (stereo not given) [N-(3-{4-[Cyano-(2-methyl-pyridin-3-yl)-methyl]-piperazin-1-yl}-3-oxo-1-phenyl-propyl)-methanesulfonamide]
[1]
  IC50: 0.021 µM

## Cc1ncccc1C(C#N)N1CCN(C(=O)/C=C(/c2ccccc2)C(F)(F)F)CC1 (stereo not given) [(2-Methyl-pyridin-3-yl)-[4-(4,4,4-trifluoro-3-phenyl-but-2-enoyl)-piperazin-1-yl]-acetonitrile]
[1]
  IC50: 0.12 µM

## Cc1ncccc1C(C#N)N1CCN(C(=O)CC(NC(=O)c2ccc[nH]c2=O)c2ccccc2)CC1 (stereo not given) [N-(3-{4-[Cyano-(2-methyl-pyridin-3-yl)-methyl]-piperazin-1-yl}-3-oxo-1-phenyl-propyl)-2-hydroxy-nicotinamide]
[1]
  IC50: 0.029 µM

## Cc1ncccc1C(C#N)N1CCN(C(=O)/C=C(\c2ccccc2)C(F)(F)F)CC1 (stereo not given) [(2-Methyl-pyridin-3-yl)-[4-(4,4,4-trifluoro-3-phenyl-but-2-enoyl)-piperazin-1-yl]-acetonitrile]
[1]
  IC50: 0.055 µM

## Cc1ncccc1C(C#N)N1CCN(C(=O)CC(NC(=O)c2ccoc2)c2ccccc2)CC1 (stereo not given) [Furan-3-carboxylic acid (3-{4-[cyano-(2-methyl-pyridin-3-yl)-methyl]-piperazin-1-yl}-3-oxo-1-phenyl-propyl)-amide]
[1]
  IC50: 2.6 µM

## Cc1ncccc1C(C#N)N1CCN(C(=O)CC(O)(c2ccccc2)c2cccnc2)CC1 (stereo not given) [[4-(3-Hydroxy-3-phenyl-3-pyridin-3-yl-propionyl)-piperazin-1-yl]-(2-methyl-pyridin-3-yl)-acetonitrile]
[1]
  IC50: 0.032 µM

## CCOC(=O)C(c1cccnc1C)N1CCN(C(=O)CC(c2ccccc2)c2ccccc2)CC1 (stereo not given) [[4-(3,3-Diphenyl-propionyl)-piperazin-1-yl]-(2-methyl-pyridin-3-yl)-acetic acid ethyl ester]
[1]
  IC50: 15.5 µM

## CCc1ncccc1C(C#N)N1CCN(C(=O)CNC(c2ccccc2)c2ccccc2)CC1 (stereo not given) [{4-[2-(Benzhydryl-amino)-acetyl]-piperazin-1-yl}-(2-ethyl-pyridin-3-yl)-acetonitrile]
[2]
  IC50: 0.038 µM

## Cc1ncccc1C(C#N)N1CCN(C(=O)CC(NC(N)=O)c2ccccc2)CC1 (stereo not given) [(3-{4-[Cyano-(2-methyl-pyridin-3-yl)-methyl]-piperazin-1-yl}-3-oxo-1-phenyl-propyl)-urea]
[2]
  IC50: 0.47 µM

## Cc1ncccc1C(C#N)N1CCN(C(=O)CCNC(c2ccccc2)c2ccccc2)CC1 (stereo not given) [{4-[3-(Benzhydryl-amino)-propionyl]-piperazin-1-yl}-(2-methyl-pyridin-3-yl)-acetonitrile]
[2]
  IC50: 0.12 µM

## C#CC(c1cccnc1C)N1CCN(C(=O)CNC(c2ccccc2)c2ccccc2)CC1 (stereo not given) [2-(Benzhydryl-amino)-1-{4-[1-(2-methyl-pyridin-3-yl)-prop-2-ynyl]-piperazin-1-yl}-ethanone]
[2]
  IC50: 0.86 µM

## CNC(CC(=O)N1CCN(C(C#N)c2cccnc2C)CC1)c1ccccc1 (stereo not given) [[4-(3-Methylamino-3-phenyl-propionyl)-piperazin-1-yl]-(2-methyl-pyridin-3-yl)-acetonitrile]
[2]
  IC50: 0.011 µM
